# Results reported in patent US20150044346A1, “USE OF OXAZOLINES AS AROMA/FLAVOUR PRECURSORS” (NESTEC S.A., priority 2012, published 2015).
# What was measured:
# [1] = Sensory panel, malty aroma of coffee mix beverage spiked with oxazoline; details: coffee mix powder 16 g + 10 mg oxazoline, 130 ml hot (80° C.) water; scale −5 to +5, reference at zero
# Description: (§1) Cocoa-malt-based beverage (7.5 g) was weighted into a Pyrex bottle. The product was spiked with 2-(2-methylpropyl)-5-methyl-3-oxazoline (10 mg) and the sample was then reconstituted in 100 mL of cold (10° C.) or warm (60° C.) semi-skimmed milk. Samples without addition of oxazoline were prepared analogously and used as references. The impact of the addition of the oxazoline on the intensity of malty aroma (characteristic aroma of 3-methylbutanal) was evaluated by a sensory panel. Comparative profiling procedure was conducted using an 11-point scale ranging from −5 to +5. Assessors were asked to score the sample containing oxazoline against the reference. Reference product containing no added oxazoline was arbitrary positioned on the zero of the scale.
# (§2) Coffee mix powder (16 g) was weighted into a Pyrex bottle. The product was spiked with 2-(2-methylpropyl)-5-methyl-3-oxazoline (10 mg) and the sample was then reconstituted in 130 ml of hot (80° C.) water. Sample without addition of oxazoline was prepared analogously and used as reference. The impact of the addition of the oxazoline on the intensity of malty aroma (characteristic aroma of 3-methylbutanal) was evaluated by a sensory panel as described in example 9. […] To further substantiate the sensory results, the sample was analyzed by SPME-GCxGC-TOFMS.
# [2] = Release of Strecker aldehyde from 3-oxazoline precursor stirred in water at 37° C. (stable isotope dilution, HS-GC-MS / GC-MS); format: physicochemical; details: 5 min after addition of water at 37° C.
# [3] = SPME-GCxGC-TOFMS of 3-methylbutanal in coffee mix spiked with oxazoline; format: physicochemical
# Description: as §2
# The results (Table 7) indicate that the conversion of oxazoline to Strecker aldehyde is very high and reaches 77% in the analysed coffee mix sample (incubation 60° C./15 min).
# [4] = Impact of pH value on release of Strecker aldehyde from 3-oxazoline precursor in buffer solution at 37° C.; format: physicochemical
# Description: (§3) 2-(2-Methylpropyl)-5-methyl-3-oxazoline (dissolved in pentane/diethyl ether; 2 mL) was added to ethanol (0.5 mL). The pentane/diethyl ether was carefully evaporated, and finally made up to 5 mL with ethanol. […] A control experiment was performed with 2-(2-methylpropyl)-5-methyl-3-oxazoline and the respective standard without adding the respective buffer solution. For headspace measurements, the samples were directly subjected to HS-GC-MS. For liquid measurements, the samples were cooled in an ice bath and extracted with diethyl ether (3×15 mL; liquid-liquid extraction). The organic phases were combined, dried over anhydrous sodium sulphate, and the solvent was distilled off (20° C., 500 mbar) to about 4 mL. An aliquot (2 μL) was used for the stable isotope dilution assays ((GC-) GC-MS).
# as §3, with “2-Methylphenyl-5-methyl-3-oxazoline” for “2-(2-Methylpropyl)-5-methyl-3-oxazoline”, “2-methylphenyl-5-methyl-3-oxazoline” for “2-(2-methylpropyl)-5-methyl-3-oxazoline”
# [5] = Sensory panel, malty aroma of cereal based pap spiked with oxazoline; details: cereal powder 12.5 g + 10 mg oxazoline, scale −5 to +5
# Description: as §1
# Cereal powder (12.5 g) was weighted into a plastic dish. The product was spiked with 2-(2-methylpropyl)-5-methyl-3-oxazoline (10 mg) and the sample was then reconstituted in 100 ml of warm (60° C.) water or semi-skimmed milk. Sample without addition of oxazoline was prepared analogously and used as reference. The impact of the addition of the oxazoline on the intensity of malty aroma (characteristic aroma of 3-methylbutanal) was evaluated by a sensory panel as described in example 9.
# [6] = Sensory panel, malty aroma of cocoa-malt-based beverage spiked with oxazoline; details: cocoa-malt-based beverage 7.5 g + 10 mg oxazoline
# Description: as §1
structure (smiles),measurement,setting,value
CC(C)CC1N=CC(C)O1 (stereo not drawn) [2-(2-methylpropyl)-5-methyl-3-oxazoline],malty note score against reference,[1],3.5
same,3-methylbutanal released / precursor converted to Strecker aldehyde,[2],about 75%
same,"Theoretical release from spike, 3-methylbutanal (ug/vial)",[3],244 ug/vial
same,Yield of conversion of oxazoline to Strecker aldehyde,[3]; incubation 60° C./15 min,77%
same,"3-methylbutanal (ug/vial), sample spiked with oxazoline","[3]; incubation 60° C./15 min, non-spiked reference 28",215 ug/vial
same,3-methylbutanal (mol %) generated from precursor,"[4]; pH 5, Control without addition of buffer solution",0.5 mol %
same,3-methylbutanal (mol %) generated from precursor,"[4]; pH 5 buffer, 10 min, 37° C.",95.1 mol %
same,3-methylbutanal (mol %) generated from precursor,"[4]; pH 5 buffer, 60 min, 37° C.",98.9 mol %
same,3-methylbutanal (mol %) generated from precursor,"[4]; pH 7, Control without addition of buffer solution",0.3 mol %
same,3-methylbutanal (mol %) generated from precursor,"[4]; pH 7 buffer, 10 min, 37° C.",54.8 mol %
same,3-methylbutanal (mol %) generated from precursor,"[4]; pH 7 buffer, 60 min, 37° C.",97.9 mol %
same,3-methylbutanal (mol %) generated from precursor,"[4]; pH 9, Control without addition of buffer solution",0.3 mol %
same,3-methylbutanal (mol %) generated from precursor,"[4]; pH 9 buffer, 10 min, 37° C.",9.0 mol %
same,3-methylbutanal (mol %) generated from precursor,"[4]; pH 9 buffer, 60 min, 37° C.",35.7 mol %
same,malty note score against reference,[5]; 100 ml warm (60° C.) semi-skimmed milk,1.2
same,malty note score against reference,[5]; 100 ml warm (60° C.) water,1.7
same,malty note score against reference,"[6]; cold (10° C.) semi-skimmed milk, 11-point scale −5 to +5, reference at zero",3.6
same,malty note score against reference,"[6]; warm (60° C.) semi-skimmed milk (hot milk), scale −5 to +5, reference at zero",3.3
